Measured values: US20260125335A1, “SYNTHETIC C[…], PHARMACEUTICAL COMPOSITIONS, AND METHODS OF TREATING BACTERIAL INFECTIONS AND OTHER DISORDERS” (priority 2023, published 2026)
Converted amounts (≈) assume the structure as drawn. Read-outs that look alike come from different tables or passages of the source.

How the values were obtained:
Format in all cases: cell-based
Streptococcus pyogenes = test: Broth microdilution MIC assay, Streptococcus pyogenes
Experimental: (§1) This example illustrates evaluating in vitro activity of (Z)-2-(3,6-dimethylhepta-2,5-dien-1-yl)-5-pentylbenzene-1,3-diol (Example 1, “M194”) against gram-positive and gram-negative bacteria. In this study, in vitro activity was determined against a diverse panel of Gram-positive and Gram-negative bacteria associated with a variety of infections. Broth microdilution MIC assays were conducted following guidelines recommended by the Clinical and Laboratory Standards Institute (CLSI; 1-3).
(§2) The compound M194 was provided in powder form and initially stored at room temperature prior to testing. A stock solution of M194 in DMSO/DMSO solvent/diluent was made at 101× the final testing concentration and tested over ranges of 0.06-64 μg/mL.
(§3) Test organisms consisted of isolates from the American Type Culture Collection (ATCC; Manassas, VA) and the Micromyx Repository (MMX; Kalamazoo, MI). Upon initial receipt at Microbiologics, the organisms were sub-cultured onto an appropriate agar medium and incubated under atmospheric conditions required for growth. Following incubation for 18 to 24 hr at 35° C. in the appropriate atmosphere, colonies were harvested from these plates and cell suspensions were prepared and frozen at −80° C. with a cryoprotectant. Prior to testing, isolates were streaked from frozen vials onto the appropriate agar. […]

Neisseria gonorrhoeae = test: Broth microdilution MIC assay, Neisseria gonorrhoeae
Experimental: as §1, §2, §3

[1] = tested on: Streptococcus spp. and L. monocytogenes; test: Broth microdilution MIC assay, Streptococcus spp. and L. monocytogenes; details: all Streptococcus spp., compared with Staphylococcus spp. and Enterococcus spp.
Experimental: as §1, §2, §3

[2] = tested on: Staphylococcus saprophyticus; test: Broth microdilution MIC assay, Staphylococcus saprophyticus; details: type MSS
Experimental: as §1, §2, §3

Serratia marcescens = test: Broth microdilution MIC assay, Serratia marcescens; details: type —
Experimental: as §1, §2, §3

Klebsiella pneumoniae = test: Broth microdilution MIC assay, Klebsiella pneumoniae
Experimental: as §1, §2, §3

Staphylococcus aureus = test: Broth microdilution MIC assay, Staphylococcus aureus
Experimental: as §1, §2
(§4) Test organisms consisted of isolates from the American Type Culture Collection (ATCC; Manassas, VA) and the Micromyx Repository (MMX; Kalamazoo, MI). Upon initial receipt at Microbiologics, the organisms were sub-cultured onto an appropriate agar medium and incubated under atmospheric conditions required for growth. Following incubation for 18 to 24 hr at 35° C. in the appropriate atmosphere, colonies were harvested from these plates and cell suspensions were prepared and frozen at −80° C. with a cryoprotectant. Prior to testing, isolates were streaked from frozen vials onto the appropriate agar. Unless otherwise noted, Trypticase Soy Agar with 5% sheep blood (Remel; Lenexa, KS; Lot No. 693244) was used and inoculated plates were incubated at 35° C. overnight in ambient atmosphere. Haemophilus influenzae isolates were streaked onto Chocolate agar (Becton Dickinson [BD]; Sparks, MD; Lot No. 3157581). Streptococcus spp., Moraxella spp., and H. influenzae inoculated plates were incubated at 35° C. overnight in 5% CO2.
(§5) Organisms were tested in the appropriate media according to CLSI guidelines (1-3). Cation-Adjusted Mueller Hinton broth (CAMHB) was made by supplementing Mueller Hinton Broth (MHB; BD; Lot No. 1285575) to a final concentration of 20 mg/L Ca++ (Sigma; St. Louis, MO; Lot. No. 084K0215) and 12.5 mg/L Mg++ (VWR; Radnor, PA; Lot. No. 22C0856290). CAMHB was used for broth microdilution testing except for isolates requiring specialized media as described below.
(§6) The MIC assay method followed the procedures described by CLSI and employed automated liquid handlers to conduct serial dilutions and liquid transfers. Automated liquid handlers included the Multidrop Combi (ThermoScientific), Biomek 3000, and Biomek FX (Beckman Coulter; Fullerton, CA).
(§7) The wells in columns 2 through 12 in standard 96-well microdilution plates (Costar 3795) were filled with 150 μl of the appropriate diluent. These would become the “mother plates” from which “daughter,” or test plates, would be prepared. […]

Enterobacter cloacae = test: Broth microdilution MIC assay, Enterobacter cloacae; details: type —
Experimental: as §1, §2, §3

[3] = tested on: Staphylococcus spp. and Enterococcus spp.; test: Broth microdilution MIC assay, Staphylococcus spp. and Enterococcus spp.; details: all Staphylococcus spp.
Experimental: as §1, §2, §3

Proteus mirabilis = test: Broth microdilution MIC assay, Proteus mirabilis; details: type —
Experimental: as §1, §2, §3

Citrobacter freundii = test: Broth microdilution MIC assay, Citrobacter freundii; details: type —
Experimental: as §1, §2, §3

Enterococcus faecalis = test: Broth microdilution MIC assay, Enterococcus faecalis
Experimental: as §1, §2, §4, §5, §6, §7

Acinetobacter baumannii = test: Broth microdilution MIC assay, Acinetobacter baumannii
Experimental: as §1, §2, §4
(§8) Organisms were tested in the appropriate media according to CLSI guidelines (1-3). […]

Streptococcus mutans = test: Broth microdilution MIC assay, Streptococcus mutans; details: type —
Experimental: as §1, §2, §3

Haemophilus influenzae = test: Broth microdilution MIC assay, Haemophilus influenzae; details: for MIC: Haemophilus influenzae
Experimental: as §1, §2, §4, §8

Enterobacterales = test: Broth microdilution MIC assay, Enterobacterales; details: any of the Enterobacterales
Experimental: as §1, §2, §3

Moraxella catarrhalis = test: Broth microdilution MIC assay, Moraxella catarrhalis
Experimental: as §1, §2, §3

Streptococcus agalactiae = test: Broth microdilution MIC assay, Streptococcus agalactiae
Experimental: as §1, §2, §3

Pseudomonas aeruginosa = test: Broth microdilution MIC assay, Pseudomonas aeruginosa; details: for MIC: Pseudomonas aeruginosa
Experimental: as §1, §2, §4, §8

Escherichia coli = test: Broth microdilution MIC assay, Escherichia coli
Experimental: as §1, §2, §4, §8

Enterococcus faecium = test: Broth microdilution MIC assay, Enterococcus faecium
Experimental: as §1, §2, §3

Streptococcus oralis = test: Broth microdilution MIC assay, Streptococcus oralis; details: type ERYR
Experimental: as §1, §2, §3

[4] = tested on: Staphylococcus epidermidis; test: Broth microdilution MIC assay, Staphylococcus epidermidis
Experimental: as §1, §2, §3

[5] = tested on: Streptococcus constellatus; test: Broth microdilution MIC assay, Streptococcus constellatus; details: type —
Experimental: as §1, §2, §3

Listeria monocytogenes = test: Broth microdilution MIC assay, Listeria monocytogenes; details: type —
Experimental: as §1, §2, §3

## CCCCCc1cc(O)c(C/C=C(/C)CC=C(C)C)c(O)c1 [Example M194, (Z)-2-(3,6-dimethylhepta-2,5-dien-1-yl)-5-pentylbenzene-1,3-diol]
Streptococcus pyogenes; type ERYR
  MIC: 16 µg/mL (≈ 52.9 µM)
Streptococcus pyogenes; type —, read-out: MIC
  MIC: 16 µg/mL (≈ 52.9 µM)
Neisseria gonorrhoeae; N. gonorrhoeae
  in vitro activity (in words): had activity
Neisseria gonorrhoeae; Neisseria gonorrhoeae, type QC
  MIC: 1 µg/mL (≈ 3.31 µM)
[1]
  in vitro activity (in words): to a lesser degree
[2]
  MIC: 2 µg/mL (≈ 6.61 µM)
Serratia marcescens
  MIC: > 64 µg/mL
Klebsiella pneumoniae; type QC, read-out: MIC
  MIC: > 64 µg/mL
Klebsiella pneumoniae; type —
  MIC: >64 µg/mL
Staphylococcus aureus; MRSA, type MRSA, read-out: MIC
  MIC: 1 µg/mL (≈ 3.31 µM)
Staphylococcus aureus; MSSA, type MSSA, QC, read-out: MIC
  MIC: 2 µg/mL (≈ 6.61 µM)
Staphylococcus aureus; MSSA, type MSSA, read-out: MIC
  MIC: 1 µg/mL (≈ 3.31 µM)
Staphylococcus aureus; VISA, type VISA
  MIC: 2 µg/mL (≈ 6.61 µM)
Enterobacter cloacae
  MIC: > 64 µg/mL
[3]
  in vitro activity (in words): had activity
Proteus mirabilis
  MIC: > 64 µg/mL
Citrobacter freundii
  MIC: > 64 µg/mL
Enterococcus faecalis; type VSE, QC, read-out: MIC
  MIC: 2 µg/mL (≈ 6.61 µM)
Enterococcus faecalis; type VSE, read-out: MIC
  MIC: 1 µg/mL (≈ 3.31 µM)
Enterococcus faecalis; type vanA
  MIC: 1 µg/mL (≈ 3.31 µM)
Enterococcus faecalis; type vanB
  MIC: 1 µg/mL (≈ 3.31 µM)
Acinetobacter baumannii
  in vitro activity (in words): not active
Acinetobacter baumannii; type MDR
  MIC: >64 µg/mL
Acinetobacter baumannii; type —, read-out: MIC
  MIC: > 64 µg/mL
Streptococcus mutans
  MIC: 32 µg/mL (≈ 106 µM)
Haemophilus influenzae; ATCC49247, type QC (ATCC 49247 isolate)
  MIC: 4 µg/mL (≈ 13.2 µM)
Haemophilus influenzae; H. influenzae
  in vitro activity (in words): had activity
Haemophilus influenzae; type BL+ (beta-lactamase positive isolate MMX 7988)
  MIC: 32 µg/mL (≈ 106 µM)
Enterobacterales
  in vitro activity (in words): not active
Moraxella catarrhalis
  in vitro activity (in words): had activity
Moraxella catarrhalis; type BL+
  MIC: 2 µg/mL (≈ 6.61 µM)
Streptococcus agalactiae; type MLS
  MIC: 16 µg/mL (≈ 52.9 µM)
Streptococcus agalactiae; type —, read-out: MIC
  MIC: 16 µg/mL (≈ 52.9 µM)
Pseudomonas aeruginosa; P. aeruginosa
  in vitro activity (in words): not active
Pseudomonas aeruginosa; type MDR, VIM
  MIC: >64 µg/mL
Pseudomonas aeruginosa; type QC, read-out: MIC
  MIC: > 64 µg/mL
Escherichia coli; type ESBL
  MIC: >64 µg/mL
Escherichia coli; type NDM-1
  MIC: >64 µg/mL
Escherichia coli; type QC, read-out: MIC
  MIC: > 64 µg/mL
Enterococcus faecium; type vanA
  MIC: 1 µg/mL (≈ 3.31 µM)
Enterococcus faecium; type —, read-out: MIC
  MIC: 1 µg/mL (≈ 3.31 µM)
Streptococcus oralis
  MIC: 32 µg/mL (≈ 106 µM)
[4]; type MRSE
  MIC: 1 µg/mL (≈ 3.31 µM)
[4]; type MSSE
  MIC: 1 µg/mL (≈ 3.31 µM)
[5]
  MIC: 16 µg/mL (≈ 52.9 µM)
Listeria monocytogenes
  MIC: 32 µg/mL (≈ 106 µM)
